US20090297638A1

Key:
TNF-RE tkLuc = TNF-RE tkLuc reporter, effect of antiestrogens (ER subtype not given); assay type: cell-based, human; details: for effect on the repression induced by E2: TNF-RE tkLuc, with E2; for activation of TNF-RE tkLuc: antiestrogens, in contrast to E2
Description: Plasmid Construction. […] ERβmutants were created with QuikChange site-directed mutagenesis kits (Stratagene), by using oligonucleotides containing the mutation. The mutants were sequenced with Sequenase kits (Amersham Pharmacia) to verify the presence of the mutation.

human ERβ = target: T1, human ERβ (Homo sapiens, UniProt Q92731); assay: ERE-tk-Luc luciferase assay in U2OS osteosarcoma cells, ERβ; assay type: cell-based; details: co-administration with the extract (Herb 16)
T1 construct: expressed in transfected cells; host or cells: U2OS (human osteosarcoma)
Experimental: Preparation of Anemarrhena Asphodeloides Bge. from the Liliaceae Family: Samples of Anemarrhena asphodeloides Bge. from the Liliaceae Family were ground to fine powder using a commercial electric herb grinder; 5 grams were weighed and extracted in a) 50 ml of 100% EtOH or b) 50 ml of distilled H2O was simmered at 75° Celsius for 45 minutes. The extracts (a and b) were than decanted and only the soluble material was used.

[1] = women at high risk for breast cancer; cited from earlier work
[2] = five years of therapy; cited from earlier work

T1 sequence (Q92731 whole entry): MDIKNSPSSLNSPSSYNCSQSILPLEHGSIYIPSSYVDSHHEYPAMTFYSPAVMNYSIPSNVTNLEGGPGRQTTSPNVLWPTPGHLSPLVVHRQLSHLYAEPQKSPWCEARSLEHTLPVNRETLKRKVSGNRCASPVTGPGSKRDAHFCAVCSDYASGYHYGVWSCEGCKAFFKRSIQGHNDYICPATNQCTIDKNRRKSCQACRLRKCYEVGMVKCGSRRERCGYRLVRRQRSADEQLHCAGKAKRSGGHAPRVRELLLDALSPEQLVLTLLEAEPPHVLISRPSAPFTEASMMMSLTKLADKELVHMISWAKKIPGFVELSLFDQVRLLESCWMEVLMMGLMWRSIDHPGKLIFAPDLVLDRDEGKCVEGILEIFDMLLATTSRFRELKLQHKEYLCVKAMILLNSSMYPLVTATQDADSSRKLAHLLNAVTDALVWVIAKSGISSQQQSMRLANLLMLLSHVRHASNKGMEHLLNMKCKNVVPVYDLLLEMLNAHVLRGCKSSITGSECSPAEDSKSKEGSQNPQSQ

SMILES	effect on the repression induced by E2 (TNF-RE tkLuc)	activation of TNF-RE tkLuc (TNF-RE tkLuc)	effect on extract-stimulated ERE-tk-Luc expression (human ERβ; FIG. 5)	effect on extract-stimulated ERE-tk-Luc expression (human ERβ; FIG. 5, listed as ICI)	effect on extract-stimulated ERE-tk-Luc expression (human ERβ; FIG. 5, listed as Raloxifene)	reduction of the risk of primary invasive breast cancer [1]	reduction of mortality from breast cancer [2]	reduction of the risk of recurrences [2]
C[C@]12CC[C@@H]3c4ccc(O)cc4C[C@@H](CCCCCCCCC[S+]([O-])CCCC(F)(F)C(F)(F)F)[C@H]3[C@@H]1CC[C@@H]2O (stereo partly shown) [ICI 182780]	abolished the repression induced by E2	2 fold	counteracted	attenuated				
O=C(c1ccc(OCCN2CCCCC2)cc1)c1c(-c2ccc(O)cc2)sc2cc(O)ccc12 [raloxifene]	abolished the repression induced by E2	2 fold	counteracted		attenuated			
CC/C(=C(\c1ccccc1)c1ccc(OCCN(C)C)cc1)c1ccccc1 [tamoxifen]	abolished the repression induced by E2	2 fold				49%	22%	42%
